Several values for one entry are separate records, joined by “and”; a condition that tells them apart may be missing. Equal values may be shown once. Toxic doses and inconclusive results are not listed. The calls were made as follows: active = survival T/C of 150% or more; inactive = T/C below 125% in these data.
System: P388 leukemia ip, CD2F1 mice, survival T/C
Assay: NCI In Vivo Anticancer Drug Screen. Data for tumor model P388 Leukemia (intraperitoneal) in CD2F1 (CDF1) mice
Conditions: endpoint: median survival time, higher = longer survival
Outline: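 Mice carrying the transplanted tumor received test compound or vehicle. Survival was recorded in each group, and the value is the treated-group measurement divided by that of the vehicle-treated control group.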

[1] = dose: 50.0 mg/kg/injection, schedule: Q01DX009 (ip), vehicle: saline
[2] = dose: 60.0 mg/kg/injection, schedule: Q01DX005 (ip), vehicle: saline with Tween-80
[3] = dose: 120.0 mg/kg/injection, schedule: Q01DX005 (ip), vehicle: saline with Tween-80
[4] = dose: 12.5 mg/kg/injection, schedule: Q01DX009 (ip), vehicle: saline
[5] = dose: 25.0 mg/kg/injection, schedule: Q01DX009 (ip), vehicle: saline
[6] = dose: 100.0 mg/kg/injection, schedule: Q01DX009 (ip), vehicle: saline with Tween-80
[7] = dose: 200.0 mg/kg/injection, schedule: Q01DX009 (ip), vehicle: saline with Tween-80
[8] = dose: 50.0 mg/kg/injection, schedule: Q01DX009 (ip), vehicle: Klucel (hydroxypropylcellulose) (HPC)
[9] = dose: 100.0 mg/kg/injection, schedule: Q01DX009 (ip), vehicle: Klucel (hydroxypropylcellulose) (HPC)
[10] = dose: 200.0 mg/kg/injection, schedule: Q01DX009 (ip), vehicle: Klucel (hydroxypropylcellulose) (HPC)
[11] = dose: 50.0 mg/kg/injection, schedule: Q01DX005 (ip), vehicle: saline
[12] = dose: 25.0 mg/kg/injection, schedule: Q01DX005 (ip), vehicle: Klucel (hydroxypropylcellulose) (HPC)
[13] = dose: 50.0 mg/kg/injection, schedule: Q01DX005 (ip), vehicle: Klucel (hydroxypropylcellulose) (HPC)
[14] = dose: 100.0 mg/kg/injection, schedule: Q01DX005 (ip), vehicle: Klucel (hydroxypropylcellulose) (HPC)

Measured: T/C

CCC(C)=C(C#N)NC(C)(C)C (mixture of isomers)
inactive: [1] 106 % of control | dose: 100.0 mg/kg/injection, schedule: Q01DX009 (ip), vehicle: saline 100 % of control | dose: 200.0 mg/kg/injection, schedule: Q01DX009 (ip), vehicle: saline 110 % of control

COC(=O)c1nc(N)nc(C(=O)OC)c1C(=O)c1ccc(Cl)c(Cl)c1
inactive: [2] 100 % of control | [3] 94 % of control

CC(=O)NNC(=O)C(Cl)Cl
inactive: [4] 92 % of control | [5] 89 % of control | [1] 101 % of control and 90 % of control

CC(C)(C)OC(=O)NC(CCCCNC(=O)C(F)(F)F)C(=O)ON1C(=O)CCC1=O (configuration not stated)
inactive: dose: 50.0 mg/kg/injection, schedule: Q01DX009 (ip), vehicle: saline with Tween-80 102 % of control | [6] 99 % of control | [7] 106 % of control

COc1cc(NC(C)=O)c(OC)cc1N
inactive: dose: 25.0 mg/kg/injection, schedule: Q04DX002 (ip), vehicle: saline 104 % of control | dose: 50.0 mg/kg/injection, schedule: Q04DX002 (ip), vehicle: saline 98 % of control

C=CC(=O)NN=C(c1ccccc1)c1ccccc1
inactive: dose: 42.0 mg/kg/injection, schedule: Q01DX009 (ip), vehicle: saline with Tween-80 98 % of control | dose: 84.0 mg/kg/injection, schedule: Q01DX009 (ip), vehicle: saline with Tween-80 103 % of control | dose: 168.0 mg/kg/injection, schedule: Q01DX009 (ip), vehicle: saline with Tween-80 100 % of control

CCn1c2ccccc2c2ccc(N=Cc3ccc([N+](=O)[O-])cc3)cc21
inactive: [8] 99 % of control | [9] 100 % of control | [10] 99 % of control

CC1=CC(C)(C)N=C(N)N1
inactive: dose: 12.5 mg/kg/injection, schedule: Q01DX005 (ip), vehicle: saline 98 % of control | dose: 25.0 mg/kg/injection, schedule: Q01DX005 (ip), vehicle: saline 97 % of control | [11] 105 % of control and 91 % of control

CC(=O)[C@H]1CC[C@H]2[C@@H]3C[C@H](F)C4=CC(=O)CC[C@]4(C)[C@H]3C(=O)C[C@]12C
inactive: [6] 100 % of control | [7] 100 % of control | dose: 400.0 mg/kg/injection, schedule: Q01DX009 (ip), vehicle: saline with Tween-80 100 % of control

O=C(COc1ccc(Cl)cc1Cl)N1CCNC1=O
inactive: [8] 103 % of control | [9] 98 % of control | [10] 97 % of control

CS(C)(=O)=NS(=O)(=O)c1ccc([N+](=O)[O-])cc1
inactive: dose: 100.0 mg/kg/injection, schedule: Q04DX002 (ip), vehicle: Klucel (hydroxypropylcellulose) (HPC) 100 % of control | dose: 200.0 mg/kg/injection, schedule: Q04DX002 (ip), vehicle: Klucel (hydroxypropylcellulose) (HPC) 95 % of control | dose: 400.0 mg/kg/injection, schedule: Q04DX002 (ip), vehicle: Klucel (hydroxypropylcellulose) (HPC) 96 % of control

CCOC(=O)c1c[nH]n2ccnc12
inactive: dose: 100.0 mg/kg/injection, schedule: Q04DX002 (ip), vehicle: saline with Tween-80 100 % of control | dose: 200.0 mg/kg/injection, schedule: Q04DX002 (ip), vehicle: saline with Tween-80 103 % of control

O=C1c2ccccc2C(=O)c2c(Nc3cc4c5c(ccc6c7ccc8c9c(cc(Nc%10cccc%11c%10C(=O)c%10ccccc%10C%11=O)c(c3c56)c97)-c3ccccc3C8=O)C(=O)c3ccccc3-4)cccc21
inactive: dose: 12.5 mg/kg/injection, schedule: Q01DX005 (ip), vehicle: Klucel (hydroxypropylcellulose) (HPC) 106 % of control | [12] 101 % of control | [13] 98 % of control and 101 % of control | [14] 96 % of control

CN(C)c1c(Cl)c(=O)oc2c1ccc1nc(-c3ccccc3)ncc12
inactive: [2] 97 % of control | [3] 88 % of control

NNc1ncnc2ccc(Cl)cc12
inactive: [8] 111 % of control | [9] 111 % of control | [10] 113 % of control

NCc1ccccc1Br
inactive: dose: 50.0 mg/kg/injection, schedule: Q01DX005 (ip), vehicle: distilled water + alcohol 101 % of control | dose: 100.0 mg/kg/injection, schedule: Q01DX005 (ip), vehicle: distilled water + alcohol 100 % of control | dose: 200.0 mg/kg/injection, schedule: Q01DX005 (ip), vehicle: distilled water + alcohol 103 % of control

COc1ccc(N(Cc2ccc(C)o2)C(=S)Nc2ccccc2)cc1
inactive: [2] 98 % of control | [3] 102 % of control | dose: 240.0 mg/kg/injection, schedule: Q01DX005 (ip), vehicle: saline with Tween-80 105 % of control

COc1ccc2c3c(c(=O)n(C)c2c1OC)C=CC(C)(C)O3
inactive: [12] 94 % of control | [13] 100 % of control | [14] 100 % of control | dose: 200.0 mg/kg/injection, schedule: Q01DX005 (ip), vehicle: Klucel (hydroxypropylcellulose) (HPC) 88 % of control

Nc1nnc(N)n1-n1c(N)nnc1N
inactive: dose: 15.0 mg/kg/injection, schedule: Q01DX005 (ip), vehicle: saline 104 % of control | dose: 30.0 mg/kg/injection, schedule: Q01DX005 (ip), vehicle: saline 99 % of control | dose: 60.0 mg/kg/injection, schedule: Q01DX005 (ip), vehicle: saline 100 % of control and 104 % of control

CCOC(=O)C1=C(C)NC(=O)NC1c1ccc(C)cc1 (configuration not stated)
inactive: dose: 100.0 mg/kg/injection, schedule: Q04DX003 (ip), vehicle: saline with Tween-80 100 % of control | dose: 200.0 mg/kg/injection, schedule: Q04DX003 (ip), vehicle: saline with Tween-80 95 % of control | dose: 400.0 mg/kg/injection, schedule: Q04DX003 (ip), vehicle: saline with Tween-80 100 % of control

OC/C(Cl)=C(\Cl)CO
inactive: dose: 6.25 mg/kg/injection, schedule: Q01DX009 (ip), vehicle: saline 110 % of control | [4] 95 % of control | [5] 100 % of control

CCSc1n[nH]c(=O)n1C
inactive: [11] 99 % of control and 110 % of control | dose: 100.0 mg/kg/injection, schedule: Q01DX005 (ip), vehicle: saline 108 % of control and 114 % of control and 97 % of control | dose: 200.0 mg/kg/injection, schedule: Q01DX005 (ip), vehicle: saline 108 % of control and 121 % of control and 98 % of control | dose: 400.0 mg/kg/injection, schedule: Q01DX005 (ip), vehicle: saline 101 % of control and 109 % of control

CN(c1ccccc1)c1cc(O)[nH]c(=O)c1
inactive: dose: 12.5 mg/kg/injection, schedule: Q01DX009 (ip), vehicle: water 96 % of control | dose: 25.0 mg/kg/injection, schedule: Q01DX009 (ip), vehicle: water 111 % of control | dose: 50.0 mg/kg/injection, schedule: Q01DX009 (ip), vehicle: water 99 % of control | dose: 100.0 mg/kg/injection, schedule: Q01DX009 (ip), vehicle: water 100 % of control | dose: 200.0 mg/kg/injection, schedule: Q01DX009 (ip), vehicle: water 97 % of control

CCOC(=O)Nc1cc2c(c(N)n1)N=C(c1ccccc1)CS2
inactive: dose: 75.0 mg/kg/injection, schedule: Q01DX005 (ip), vehicle: Klucel (hydroxypropylcellulose) (HPC) 100 % of control | dose: 150.0 mg/kg/injection, schedule: Q01DX005 (ip), vehicle: Klucel (hydroxypropylcellulose) (HPC) 95 % of control | dose: 300.0 mg/kg/injection, schedule: Q01DX005 (ip), vehicle: Klucel (hydroxypropylcellulose) (HPC) 97 % of control

CNC(=O)OCc1nn(-c2ccc(OC)cc2)c(C)c1COC(=O)NC
inactive: dose: 12.5 mg/kg/injection, schedule: Q01DX009 (ip), vehicle: distilled water + Tween-80 92 % of control | dose: 25.0 mg/kg/injection, schedule: Q01DX009 (ip), vehicle: distilled water + Tween-80 90 % of control | dose: 50.0 mg/kg/injection, schedule: Q01DX009 (ip), vehicle: distilled water + Tween-80 90 % of control | dose: 100.0 mg/kg/injection, schedule: Q01DX009 (ip), vehicle: distilled water + Tween-80 90 % of control | dose: 200.0 mg/kg/injection, schedule: Q01DX009 (ip), vehicle: distilled water + Tween-80 87 % of control

CN(C)C1C(O)C2Oc3c(cc(O)c4c3C(=O)c3cc5c(c(O)c3C4=O)C(OCCN)CC(C)(O)C5)C(C)(O2)C1O (configuration not stated)
inactive: dose: 5.0 mg/kg/injection, schedule: Q01DX009 (ip), vehicle: other 99 % of control | dose: 10.0 mg/kg/injection, schedule: Q01DX009 (ip), vehicle: other 101 % of control | dose: 20.0 mg/kg/injection, schedule: Q01DX009 (ip), vehicle: other 106 % of control | dose: 40.0 mg/kg/injection, schedule: Q01DX009 (ip), vehicle: other 117 % of control

Reference: PubChem BioAssay AID330 (DTP/NCI, 2004)
